This data set in a line: Dynamic vapor sorption (DVS) analysis at 25° C., hygroscopicity and deliquescence. Format: physicochemical. As to conditions: for Critical Relative Humidity (CRH) / relative humidity above which high, continuous weight gain (deliquescence) is observed: DVS at 25° C.; for Critical Relative Humidity (CRH): RH1 of first sorption step with Δm/ΔRH≥0.5; for Δm/ΔRH / relative humidity above which high, continuous weight gain (deliquescence) is observed: sorption; for Δm/ΔRH / relative weight change: 25° C.; for relative weight change: 95% RH. Also noted: Δm/ΔRH: unit not given beside the values. The method, then:
Determination of the critical relative humidity is feasible by gravimetric method, e.g. with DVS, where relative humidity is changed in suitably selected steps and a sufficiently long time is used to the onset of quasi-equilibrium.
The deliquescence tendency of each salt is characterized by the critical relative humidity (CRH) value (Table 1), which was determined based on the sorption curves measured according to the measurement parameter settings below, with DVS analysis at 25° C. isotherm conditions, according to the following. […]
If the given sorption step is Δm/ΔRH≥0.5, then RH1 is considered to be the critical relative humidity (CRH) value indicating the end point of the physical stability of the substance. The value thus determined is a good match with the onset of a significant monotonic weight gain observed visually on the sorption curve. Above the critical relative humidity value, it is the process of deliquescence of the substance that determines the weight gain observed on the sorption curve.

Where [1] appears, read: listed as monohydrochloride Form A.
The mark [2] stands for this setting: listed as monohydrochloride Form B.

Structures can show the parent of a compound that is named as a salt.

Turning to `CC(=O)N1CCC(Oc2ccc(OCCCN3CCC[C@H]3C)cc2)CC1` [diHBr, 1-[4-(4-{3-[(2R)-2-methyl-pyrrolidin-1-yl]-propoxy}-phenoxy)-piperidin-1-yl]-ethanone dihydrobromide salt], the “Critical Relative Humidity (CRH)” value (dihydrobromide salt) came to 70%. Further, the Δm/ΔRH by setting is: (RH1 0%, dihydrobromide salt) 0.0; (RH1 10%, dihydrobromide salt) 0.0; (RH1 20%, dihydrobromide salt) 0.0; (RH1 30%, dihydrobromide salt) 0.0; (RH1 40%, dihydrobromide salt) 0.1; (RH1 50%, dihydrobromide salt) 0.1. The Δm/ΔRH reads like this: (RH1 60%, dihydrobromide salt) 0.3; (RH1 70%, dihydrobromide salt) 3.1; (RH1 80%, dihydrobromide salt) 3.3. The relative weight change (sorption curve, dihydrobromide salt) stood at 90%. Also, the moisture absorbed result (sorption curve, up to 70% RH) is “about 6%”.
In the case of `CC(=O)N1CCC(Oc2ccc(OCCCN3CCC[C@H]3C)cc2)CC1` [monoHCl Form A, 1-[4-(4-{3-[(2R)-2-methyl-pyrrolidin-1-yl]-propoxy}-phenoxy)-piperidin-1-yl]-ethanone monohydrochloride salt Form A], the “Critical Relative Humidity (CRH)” value stood at 40%. For the setting “RH1 0%”, this compound showed a Δm/ΔRH of 0.0. Where the note is “RH1 10%”, this compound yielded a Δm/ΔRH of 0.0. For the setting “RH1 20%”, this compound gave a Δm/ΔRH of 0.0. This compound displayed a Δm/ΔRH (RH1 30%) of 0.3. Besides, the Δm/ΔRH (RH1 40%) was 1.1. The same compound registered a Δm/ΔRH (RH1 50%) of 0.5. The compound further displayed a Δm/ΔRH (RH1 60%) of 0.6. The same compound displayed a Δm/ΔRH (RH1 70%) of 1.1. Also, the Δm/ΔRH (RH1 80%) worked out at 2.6. Moreover, under setting [1], the “hygroscopicity (in words)” value was “highly hygroscopic” and the “relative humidity above which high, continuous weight gain (deliquescence) is observed” value is on record as “above 40%”. The compound further gave a relative weight change (sorption curve) of 97%. For the same compound, the water bound entry (sorption curve, up to 40% RH) is on record as “about 3%”.
Consider `CC(=O)N1CCC(Oc2ccc(OCCCN3CCC[C@H]3C)cc2)CC1` [monoHCl Form B, 1-[4-(4-{3-[(2R)-2-methyl-pyrrolidin-1-yl]-propoxy}-phenoxy)-piperidin-1-yl]-ethanone monohydrochloride salt Form B], for which the “Critical Relative Humidity (CRH)” value is given as 30%. Also, the Δm/ΔRH (RH1 0%) came out at 0.0. Besides, the Δm/ΔRH (RH1 10%) is on record as 0.0. Under “RH1 20%”, this compound gave a Δm/ΔRH of 0.0. In addition, the Δm/ΔRH (RH1 30%) is 0.6. This compound came in with a Δm/ΔRH (RH1 40%) of 0.7. The same compound showed a Δm/ΔRH (RH1 50%) of 0.4. For the same compound, the Δm/ΔRH (RH1 60%) is 0.6. For the setting “RH1 70%”, the Δm/ΔRH is 0.9. The Δm/ΔRH (RH1 80%) worked out at 1.5. Besides, under setting [2], the “hygroscopicity (in words)” value was “highly hygroscopic” and the “relative humidity above which high, continuous weight gain (deliquescence) is observed” value is given as “above 30%”. The compound further gave a relative weight change (sorption curve) of 61%. For the same compound, the water bound (sorption curve, up to 30% RH) is 0.3%.
On to `CC(=O)N1CCC(Oc2ccc(OCCCN3CCC[C@H]3C)cc2)CC1` [oxalate, 1-[4-(4-{3-[(2R)-2-methyl-pyrrolidin-1-yl]-propoxy}-phenoxy)-piperidin-1-yl]-ethanone oxalate salt], for which the “Critical Relative Humidity (CRH)” value (oxalate salt) is “not deliquescent”. Moreover, the Δm/ΔRH (RH1 0%, oxalate salt) worked out at 0.0; the Δm/ΔRH (RH1 10%, oxalate salt) is 0.1; the Δm/ΔRH (RH1 20%, oxalate salt) is given as 0.1; the Δm/ΔRH (RH1 30%, oxalate salt) came to 0.2; the Δm/ΔRH (RH1 40%, oxalate salt) stood at 0.1; the Δm/ΔRH (RH1 50%, oxalate salt) was determined as 0.0. Also, the Δm/ΔRH turned out to be 0.0 (RH1 60%, oxalate salt); 0.0 (RH1 70%, oxalate salt); 0.1 (RH1 80%, oxalate salt). Moreover, the “deliquescence (in words)” value is reported as “does not even show deliquescence” (above 90% RH, DVS 25° C., oxalate salt) and “not deliquescent” (under the conditions of the DVS analysis, oxalate salt). For the same compound, the “relative weight gain relative to the dried weight” value (sorption curve, 10-50% RH range, constant up to approx. 70% RH) is “about 4.7%”.

The record behind these values is patent publication US20220235030A1, “SELECTIVE HISTAMINE H3 ANTAGONIST ACID ADDITION SALTS AND PROCESS FOR THE PREPARATION THEREOF” (RICHTER GEDEON NYRT., priority 2019, published 2022).
